Test results: BindingDB's records for doi:10.1021/acs.biochem.6b00446 (Avanti Polar Lipids, 2016)
Several values for one entry are separate records, joined by “and”; a condition that tells them apart may be missing. Equal entries are not always repeated.

Biological target: T1, Fatty acid-binding protein, liver (Mus musculus, UniProt P12710)
T1 sequence (P12710 whole entry): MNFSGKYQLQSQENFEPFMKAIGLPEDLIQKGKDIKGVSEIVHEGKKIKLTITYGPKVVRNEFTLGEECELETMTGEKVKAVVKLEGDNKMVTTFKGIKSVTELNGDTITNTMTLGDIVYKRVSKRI
Assay: FABP1 Fluorescent Ligand Displacement Assay
Description: Data were corrected for the following blanks/controls: protein only, fluorescent ligand only, fluorescent ligand with anincreasing amount of nonfluorescent ligand, and photobleaching.

With `CCc1c(-c2ccccc2)c(-c2ccccc2)nn1-c1ccccc1-c1cccc(OCC(=O)O)c1` [((2'-(5-ETHYL-3,4-DIPHENYL-1H-PYRAZOL-1-YL)-3-BIPHENYLYL)OXY)ACETIC ACID] the Ki was 21 nM and 52 nM.

In order of falling Ki:
1. Cc1c(C(=O)NN2CCCCC2)nn(-c2ccc(Cl)cc2Cl)c1-c1ccc(Cl)cc1 [SR141716]  2000 nM
2. CCCCCc1cc(O)c2c(c1)OC(C)(C)[C@@H]1CCC(C)=C[C@@H]21 [(10R,10aR)-6,6,9-Trimethyl-3-pentyl-6a,7,8,10a-tetrahydro-6H-benzo[c]chromen-1-ol]  1000 nM
3. CCCCCCC(C)(C)c1ccc([C@@H]2C[C@H](O)CC[C@H]2CCCO)c(O)c1 [ChEMBL_75020]  990 nM
4. COc1cc([N+](=O)[O-])cc2c1NC(c1ccc(Br)cc1)=NO2 [SCPI3]  900 nM
5. CCCCCCC(C)(C)c1cc(O)c2c(c1)OC(C)(C)[C@@H]1CC=C(CO)C[C@@H]21 [(6aR,10aR)-3-(1,1-dimethyl-heptyl)-9-hydroxymethyl-6,6-dimethyl-6a,7,10,10a-tetrahydro-6H-benzo[c]chromen-1-ol]  850 nM
6. CC(=O)Nc1ccc(Nc2nc(-c3ccc(Cl)c(Cl)c3)cs2)cc1 [SCPI1]  350 nM
7. C=C(C)[C@@H]1CCC(C)=C[C@H]1c1c(O)cc(CCCCC)cc1O [2-(6-Isopropenyl-3-methyl-cyclohex-2-enyl)-5-pentyl-benzene-1,3-diol (Cannabidiol)]  167 nM
8. CCC=CCC=CCC=CCC=CCC=CCC=CCCC(=O)NCCO [Docosahexaenoylethanolamide (DHEA)]  163 nM
9. CCCCCCCCCCCCCCCC(=O)OC(CO)CO [2-Palmitoylmonoglycerol (2-PG)]  70 nM
10. CCCCC/C=C\C/C=C\C/C=C\C/C=C\CCCC(=O)OC(CO)CO  61 nM
11. CCCCCn1cc(C(=O)c2cccc3ccccc23)c2ccccc21 [JWH-018]  58 nM
12. CCCCCCCC/C=C\CCCCCCCC(=O)NCCO [Oleamide MEA]  43 nM
13. CCCCCCCC/C=C\CCCCCCCC(=O)N[C@@H](CO)Cc1ccc(O)cc1 [OMDM2]  40 nM
14. CCCCCCCC/C=C\CCCCCCCC(=O)OC(CO)CO [2-Oleoylmonoglycerol (2-OG)]  40 nM
15. CCCCCCCC/C=C\CCCCCCCC(=O)N[C@H](CO)Cc1ccc(O)cc1 [OMDM1]  40 nM
16. CCCCCC=CCC=CCC=CCC=CCCCC(=O)Nc1ccc(O)cc1C [VDM11]  37 nM
17. Cc1ccc2c(c1)-c1c(ssc1=S)C(C)(C)N2C(=O)CC(C)C [SCPI4]  33 nM
18. CCCCC/C=C\C/C=C\C/C=C\C/C=C\CCCC(=O)Nc1ccc(O)cc1  29 nM
